# Like-named read-outs stand apart in the source and are kept apart here.
# Tests used:
# [1] = tested on: ADR multi-drug resistant breast cancer cell line; test: ATP luminescence (CellTiter-Glo) cell viability assay, ADR; format: cell-based; details: 72 h, read-out: EC50 (nM) ADR
# Experimental: (§1) An ATP luminescence assay was used, the procedure being as follows: Cells were seeded at 1×10^3 cells/well in 96-well plates for 3 h for ATP CellTiter^Glo™ assays, respectively. Serial dilutions (1:3) of compounds were added to the wells. Plates were allowed to incubate for 72 h. A CellTiter^Glo™ cell viability kit from Promega was used to measure ATP content of cells treated with compounds following manufacturer's instruction. A decrease in the ATP content is a measure of decrease in cellular viability. The EC50 value—the concentration at which an agent reduces cell viability by 50% of the maximum effect—was determined using PRISM™ software, version 5.0 (GraphPad Software, La Jolla, Calif., USA).
# (§2) The compounds were tested against ADR, a multi-drug resistant breast cancer cell line as well as the H226, N87, and OVCAR3 cell lines.
# N87 cell line = test: ATP luminescence (CellTiter-Glo) cell viability assay, N87; format: cell-based; details: 72 h, read-out: EC50 (nM) N87
# Experimental: as §1, §2
# H226 cell line = test: ATP luminescence (CellTiter-Glo) cell viability assay, H226; format: cell-based; details: Homo sapiens, read-out: EC50 (nM) H226
# Experimental: as §1, §2
# OVCAR3 cell line = test: ATP luminescence (CellTiter-Glo) cell viability assay, OVCAR3; format: cell-based; details: Homo sapiens, read-out: EC50 (nM) OVCAR3
# Experimental: as §1, §2
# cancer cells = details: antitumor activity, Nicolaou et al. 2007, 2008; cited from earlier work
# [2] = Chemical stability observed on preparation and storage; format: physicochemical; details: observation on handling and storage; both acid- and base-sensitive, slowly decomposed at −78° C
# [3] = ADR multidrug resistant breast cancer cell line, ATP content
# [4] = NCI-H226, H226, 72 h, ATP content
# [5] = OVCAR-3, OVCAR3, 72 h, ATP content
Compound,"EC50 [1, 3]","EC50 (N87 cell line; N87, ATP content)",EC50 (H226 cell line; [4]),EC50 (OVCAR3 cell line; [5]),stability [2],also measured
COc1cc2c(c(OC)c1CN)C(=O)c1c(O)cc3c(c1C2=O)N[C@H]1C#C/C=C\C#C[C@@H](O)[C@@]32O[C@@]12[C@@H](C)O,0.34 nM,0.15 nM,0.077 nM,0.4 nM,–,–
"C[C@@H](O)[C@@]12O[C@]13c1cc(O)c4c(c1N[C@H]2C#C/C=C\C#C[C@H]3O)C(=O)c1ccccc1C4=O [Compound 26a, Uncialamycin]",0.39 nM,1.8 nM,1.8 nM,4.7 nM,–,melting point: 175 °C (dec.); IC50 (cancer cells): picomolar
"C[C@@H](O)[C@@]12O[C@]13c1cc(O)c4c(c1N[C@H]2C#C/C=C\C#C[C@H]3O)C(=O)c1ccc(N)cc1C4=O [Compound 36a, 8-Amino-uncialamycin, reference compound]",0.67 nM,2.7 nM,2.4 nM,7.4 nM,–,–
"C[C@@H](O)[C@@]12O[C@]13c1cc(O)c4c(c1N[C@H]2C#C/C=C\C#C[C@H]3O)C(=O)c1ccc(CN)cc1C4=O [Compound 48aa, 8-Aminomethyl-uncialamycin]",0.02 nM,0.011 nM,0.028 nM,0.32 nM,extremely unstable,–
C[C@@H](O)[C@@]12O[C@]13c1cc(O)c4c(c1N[C@H]2C#C/C=C\C#C[C@@H]3O)C(=O)c1ccc(CN)cc1C4=O [Compound 48ab],0.054 nM,0.023 nM,0.051 nM,0.28 nM,–,–
"C[C@@H](O)[C@@]12O[C@]13c1cc(O)c4c(c1N[C@H]2C#C/C=C\C#C[C@H]3O)C(=O)c1cc(CN)ccc1C4=O [Compound 48ba, 7-Aminomethyl-uncialamycin]",0.029 nM,0.01 nM,0.012 nM,0.066 nM,extremely unstable,–
"C[C@@H](O)[C@@]12O[C@]13c1cc(O)c4c(c1N[C@H]2C#C/C=C\C#C[C@H]3O)C(=O)c1c(CN)cccc1C4=O [Compound 48ca, 6-Aminomethyl-uncialamycin]",–,–,–,–,extremely unstable,–
"C[C@@H](O)[C@@]12O[C@]13c1cc(O)c4c(c1N[C@H]2C#C/C=C\C#C[C@H]3O)C(=O)c1cccc(CN)c1C4=O [Compound 48da, 9-Aminomethyl-uncialamycin]",–,–,–,–,extremely unstable,–
"C[C@@H](O)[C@@]12O[C@]13c1cc(O)c4c(c1N[C@H]2C#C/C=C\C#C[C@H]3O)C(=O)c1cc2c(cc1C4=O)CNC2 [Compound 97, Isoindoline-uncialamycin 97]",–,–,–,–,extremely unstable,–
"CNCc1ccc2c(c1)C(=O)c1c(O)cc3c(c1C2=O)N[C@H]1C#C/C=C\C#C[C@@H](O)[C@@]32O[C@@]12[C@@H](C)O [Compound 108, N-methyl-8-aminomethyl-uncialamycin 108]",–,–,–,–,extremely unstable,–
C=CCOC(=O)N1c2c(cc(O)c3c2C(=O)c2ccc(CN)cc2C3=O)[C@@]23O[C@@]2([C@@H](C)O[Si](CC)(CC)CC)[C@@H]1C#C/C=C\C#C[C@H]3O [Compound 111],–,–,–,–,much more stable than 48aa,–
CC(C)[C@H](NC(=O)CCCCCN1C(=O)C=CC1=O)C(=O)N[C@@H](CCCNC(N)=O)C(=O)Nc1ccc(COC(=O)NCc2ccc3c(c2)C(=O)c2c(O)cc4c(c2C3=O)N[C@H]2C#C/C=C\C#C[C@@H](O)[C@@]43O[C@@]23[C@@H](C)O)cc1 [Compound 116],–,–,–,–,–,"EC50 [1]: 3.3 nM; EC50 (N87 cell line): 8.7 nM; EC50 (H226 cell line; NCI-H226, 72 h): 4.2 nM; EC50 (OVCAR3 cell line; OVCAR-3, 72 h): 16 nM"

# Source: US10233192B2, “Derivatives of uncialamycin, methods of synthesis and their use as antitumor agents” (priority 2013, dated 2019)
